The source of these data is patent US20160206633A1, “dhS1P AND USE OF SAME AS AN ANTICANCER THERAPEUTIC AND IMMUNOMODULATOR” (Penn State Research Foundation, Inc., priority 2013, published 2016).

The structures appear in SMILES notation.

The subject of data set [1] is sphingolipids in tumor and serum. Description: Lipidomics (LC-MS3) of sphingolipids in tumors and serum of treated tumor-bearing mice. The class given is in vivo. Conditions: generally. How it is done:
To explore how PhotoImmunoNanoTherapy could be regulating the immune system, an analysis of the “sphingolipidome” was studied in tumors and serum collected from treated tumor-bearing mice. As PhotoImmunoNanoTherapy modulated the immune system, and was efficacious in both athymic nude mice and BALB/cJ mice, in depth “sphingolipidomic” studies were performed in athymic nude mice bearing MDA-MB-231 tumors to focus more precisely on mediation of T-cell-independent immunity as well as BALB/cJ mice bearing 410.4 tumors (FIG. 5A-F). […] Intriguingly, an increase in tumor S1P was observed as a function of PhotoImmunoNanoTherapy in both models (FIG. 5D), as well as an increase in the precursor sphingosine in the athymic nude mouse model (MDA-MB-231 tumor) (FIG. 5C). […] Of particular interest, the mass levels of phosphorylated sphingolipid species were much higher in serum than in tumor tissue possibly reflective of a release of phosphorylated sphingolipids in response to PhotoImmunoNanoTherapy. Intriguingly, the increase in the amount of dhS1P was more dramatic than the increase in S1P. In the MDA-MB-231, BxPC-3, and SAOS-2-LM7 models there were a 65%, 79%, and 43% increase in dhS1P, respectively, and these compared with respective increases in S1P of only 29%, 27%, and 10%. […]

Data set [2] has as its system murine Panc-02 pancreatic cancer cells. Kind of data set: Injection of BSA-conjugated sphingolipids into mice with subcutaneous Panc-02 tumors. The class given is in vivo. From the text: (A) Splenic IMCs (Gr-1+CD11b+, also defined as MDSC: myeloid-derived suppressor cells) were isolated from subcutaneous human MDA-MB-231 breast tumor-bearing athymic nude mice, treated with or without dhS1P (to induce the expansion of CD19+CD45R B220+ cells: B-cells), and adoptively transferred into subcutaneous human MDA-MB-231 breast tumor-bearing athymic nude mice before monitoring tumor growth. ANOVA, **p<0.05 compared to PBS control, n≧6. (B) Splenic IMCs were isolated from orthotopic human BxPC-3 pancreatic tumor-bearing athymic nude mice, treated with or without dhS1P, and adoptively transferred into orthotopic human BxPC-3 pancreatic tumor-bearing athymic nude mice before monitoring survival. Logrank test, *p<0.05, n=5. (C) Tumor growth following BSA (lipid carrier control), sphingosine-1-phosphate (S1P), or dhS1P injection every other day, was monitored in C57BL/6J mice engrafted with subcutaneous murine Panc-02 pancreatic cancer cells. ANOVA, **p<0.05 compared to BSA control, n≧6.
Orthotopic pancreatic cancer and subcutaneous breast cancer tumors were established in athymic nude, NOD.CB17-Prkdcscid/J, BALB/cJ, or C57BL/6J mice as previously described (8, 9), with minor modifications. All cell lines used in animal and cellular studies, prior to any modification, were originally obtained from the American Type Culture Collection (Manassas, Va.). For orthotopic BxPC-3-GFP human pancreatic cancer xenografts, 4-6 week old female athymic mice were fully anesthetized with a mixture of ketamine-HCl (129 mg/kg) and xylazine (4 mg/kg) injected intramuscularly. A small incision was made in the left flank, the peritoneum was dissected and the pancreas exposed. Using a 27-gauge needle, 2.5×10^6 cells, prepared in 0.1 mL of Hank's balanced salt solution, were injected into the pancreas. For experimental lung-metastatic osteosarcoma xenografts, 4-6 week old female athymic nude mice were tail vein-injected with 2.5×10^6 human SAOS-2-LM7 cells. […] Tumor size was measured by caliper measurement. […]

On to `CCCCCCCCCCCCCCC[C@@H](O)[C@@H](N)COP(=O)(O)O` [dhS1P, dihydrosphingosine-1-phosphate], for which, in data set [1], the “Serum levels measured in the experiments” value is on record as “around 0.005 mg/kg”. Further, the Life expectancy entry in data set [2] (direct injections into pancreatic tumor-bearing mice) is recorded as “improved”. Besides, the Tumor growth result in data set [2] (subcutaneous Panc-02 in C57BL/6J mice, injection every other day, 0.1 mL of 100 μM, BSA carrier) is recorded as “therapeutic effect”.
